Legend:
A2780 [1] = assay: Cytotoxicity against human A2780 cells assessed as cell viability measured after 48 hrs by MTT assay; format: functional, cell-based; conditions: A2780, 48 h
SK-OV-3 = assay: Cytotoxicity against human SK-OV-3 cells assessed as cell viability measured after 48 hrs by MTT assay; format: functional, cell-based; conditions: SK-OV-3, 48 h
Huh-7 = assay: Cytotoxicity against human Huh-7 cells assessed as cell viability measured after 48 hrs by MTT assay; format: functional, cell-based; conditions: Huh-7, 48 h
A2780 [2] = assay: Induction of apoptosis in human A2780 cells assessed as late apoptotic cells at 800 nM measured after 24 hrs by Annexin V-FITC/PI flow cytometry (reference value: 1.58%); format: functional
A2780 [3] = assay: Induction of apoptosis in human A2780 cells assessed as viable cells at 800 nM measured after 24 hrs by Annexin V-FITC/PI flow cytometry (reference value: 96.1%); format: functional; conditions: read-out: Activity
A2780 [4] = assay: Induction of apoptosis in human A2780 cells assessed as necrotic cells at 800 nM measured after 24 hrs by Annexin V-FITC/PI flow cytometry (reference value: 0.18%); format: functional
A2780 [5] = assay: Induction of apoptosis in human A2780 cells assessed as early apoptotic cells at 800 nM measured after 24 hrs by Annexin V-FITC/PI flow cytometry (reference value: 2.17%); format: functional
A2780 [6] = assay: Induction of cell cycle arrest in human A2780 cells assessed as accumulation of cells at S phase at 20 uM measured after 24 hrs by PI staining based Cell Cycle Analysis Kit (KeyGEN) (reference value: 15%); format: functional
A2780 [7] = assay: Induction of apoptosis in human A2780 cells assessed as viable cells at 20 uM measured after 24 to 72 hrs by Annexin V-FITC/PI flow cytometry (reference value: 94.2%); format: functional; conditions: time 24-72 hrs, read-out: Activity
A2780 [8] = assay: Induction of cell cycle arrest in human A2780 cells assessed as accumulation of cells at G1 phase at 20 uM measured after 24 hrs by PI staining based Cell Cycle Analysis Kit (KeyGEN) (reference value: 54.2%); format: functional
A2780 [9] = assay: Induction of apoptosis in human A2780 cells assessed as necrotic cells at 20 uM measured after 24 to 72 hrs by Annexin V-FITC/PI flow cytometry (reference value: 0.39%); format: functional; conditions: time 24-72 hrs
A2780 [10] = assay: Induction of apoptosis in human A2780 cells assessed as early apoptotic cells at […] measured after 24 to 72 hrs by Annexin V-FITC/PI flow cytometry (reference value: 2.82%); format: functional; conditions: time 24-72 hrs
A2780 [11] = assay: Induction of apoptosis in human A2780 cells assessed as late apoptotic cells at […] measured after 24 to 72 hrs by Annexin V-FITC/PI flow cytometry (reference value: 2.54%); format: functional; conditions: time 24-72 hrs
A2780 [12] = assay: Induction of cell cycle arrest in human A2780 cells assessed as accumulation of cells at G2 phase at 20 uM measured after 24 hrs by PI staining based Cell Cycle Analysis Kit (KeyGEN) (reference value: 24.5%); format: functional

CC(=O)OC[C@]12[C@H](OC(C)=O)[C@H](OC(C)=O)[C@@H]3[C@@H](OC(C)=O)[C@@]14O[C@@]3(C)COC(=O)c1cccnc1CC[C@H](C)C(=O)O[C@@H]([C@H](OC(=O)c1ccccc1)[C@@H]2OC(C)=O)[C@]4(C)O
IC50 (A2780 [1]): > 60 µM

COc1cccc2c1C(=O)c1c(O)c3c(c(O)c1C2=O)C[C@@](O)(C(=O)CO)C[C@@H]3O[C@H]1C[C@H](N)[C@@H](O)[C@H](C)O1 [EPIRUBICIN]
IC50 (SK-OV-3): 0.498 µM
IC50 (Huh-7): 0.495 µM
IC50 (A2780 [1]): 1.28 µM

CO/C1=C\C(C)=C\[C@@H](C)[C@@H](O)[C@@H](C)C/C(C)=C/C=C/[C@H](OC)[C@@H]([C@@H](C)[C@@H](O)[C@H](C)[C@@]2(O)C[C@@H](O)[C@H](C)[C@@H](C(C)C)O2)OC1=O [BAFILOMYCIN A1]
Activity (A2780 [2]): 2.27%
viability at 0.8 µM (A2780 [3]): 94%
Activity (A2780 [4]): 0.43%
Activity (A2780 [5]): 3.33%

C[C@@]1(C(=O)O)CC[C@]2(C)CC[C@]3(C)C4=CC(=O)c5c(cc(O)c(O)c5C=O)[C@]4(C)CC[C@@]3(C)[C@@H]2C1
IC50 (A2780 [1]): 10.1 µM

CC(=O)OC[C@]12[C@H](OC(C)=O)[C@H](OC(C)=O)[C@@H]3[C@@H](OC(C)=O)[C@@]14OC3(C)COC(=O)c1cccnc1CCC(C)C(=O)O[C@@H]([C@H](OC(=O)c1ccoc1)[C@@H]2OC(C)=O)C4(C)O (stereo not given in full)
IC50 (A2780 [1]): > 60 µM

C[C@@H]1[C@@]23CC[C@H]4[C@@](C)(CC[C@@]5(C)[C@@H]6C[C@](C)(C(=O)O)CC[C@]6(C)CC[C@]45C)[C@@H]2C[C@@H](O)[C@@]1(O)OC3
IC50 (A2780 [1]): > 60 µM

C[S+]([O-])c1ccc(-c2nc(-c3ccc(F)cc3)c(-c3ccncc3)[nH]2)cc1 (stereo not given) [SB-203580]
Activity (A2780 [6]): 10%
viability at 20 µM (A2780 [7]): 92%
Activity (A2780 [8]): 53.8%
Activity (A2780 [9]): 0.41%
Activity (A2780 [10]): 3.32%
Activity (A2780 [11]): 4.27%
Activity (A2780 [12]): 31.5%

O=c1[nH]cc(F)c(=O)[nH]1 [FLUOROURACIL]
IC50 (SK-OV-3): 10.8 µM
IC50 (Huh-7): 28.5 µM
IC50 (A2780 [1]): 3.93 µM

CC(C)c1ccc2c(c1O)CC[C@H]1C3=C(CC[C@]21C)C(=O)OC3 [TRIPTOPHENOLIDE]
IC50 (A2780 [1]): > 60 µM

CC1(C)[C@@H](O)CC[C@]2(C)[C@H]3CC=C4[C@@H]5C[C@@]6(C)C[C@H](OC6=O)[C@]5(C)CC[C@@]4(C)[C@]3(C)CC[C@@H]12 [3-EPIABRUSLACTONE A]
IC50 (A2780 [1]): > 60 µM

C[C@]12CCC[C@@]3(COC1=O)[C@@H]1CC[C@@H]4C[C@@]1(CC[C@@H]32)C[C@@]4(C)O
IC50 (A2780 [1]): > 60 µM

CC1=C(O)C(=O)C=C2C1=CC=C1[C@@]2(C)CC[C@@]2(C)[C@@H]3C[C@](C)(C(=O)O)CC[C@]3(C)CC[C@]12C [CELASTROL]
IC50 (A2780 [1]): 1.57 µM

Source: ChEMBL document CHEMBL5608179, “Triptonide induces apoptosis and inhibits the proliferation of ovarian cancer cells by activating the p38/p53 pathway and autophagy” (Bioorg Med Chem, 2024)
